Experimental data as given in the supplement of paper PMC11451515.

Test system: P12-Ichikawa
Assay: cell viability relative to DMSO control; higher = less cytotoxic
Details: 48 h
Method in brief: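 NOMO1 or SEM cells were plated at 500 cells/well and P12-Ichikawa cells at 1000 cells/well in 1536-well plates (5 μl), after each leukemia line had been adapted for at least four passages in each medium. Pin dosing delivered library compounds in DMSO at 11 threefold concentrations, 47 μM to 0.79 nM. CellTiter-Glo One luminescence was read after 48 h at 37°C. Viability is reported as a per-plate percentage of DMSO wells, with cell-free wells as background.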

[1] = HPLM + 10% dialyzed FBS, 0.000781 µM
[2] = HPLM + 10% dialyzed FBS, 0.00234 µM
[3] = HPLM + 10% dialyzed FBS, 0.00702 µM
[4] = HPLM + 10% dialyzed FBS, 0.0211 µM
[5] = HPLM + 10% dialyzed FBS, 0.0632 µM
[6] = HPLM + 10% dialyzed FBS, 0.19 µM
[7] = HPLM + 10% dialyzed FBS, 0.569 µM
[8] = HPLM + 10% dialyzed FBS, 1.71 µM
[9] = HPLM + 10% dialyzed FBS, 5.12 µM
[10] = HPLM + 10% dialyzed FBS, 15.4 µM
[11] = HPLM + 10% dialyzed FBS, 46.1 µM
[12] = RPMI 5 mM glucose + 10% FBS, 0.000781 µM
[13] = RPMI 5 mM glucose + 10% FBS, 0.00234 µM
[14] = RPMI 5 mM glucose + 10% FBS, 0.00702 µM
[15] = RPMI 5 mM glucose + 10% FBS, 0.0211 µM
[16] = RPMI 5 mM glucose + 10% FBS, 0.0632 µM
[17] = RPMI 5 mM glucose + 10% FBS, 0.19 µM
[18] = RPMI 5 mM glucose + 10% FBS, 0.569 µM
[19] = RPMI 5 mM glucose + 10% FBS, 1.71 µM
[20] = RPMI 5 mM glucose + 10% FBS, 5.12 µM
[21] = RPMI 5 mM glucose + 10% FBS, 15.4 µM
[22] = RPMI 5 mM glucose + 10% FBS, 46.1 µM
[23] = RPMI 5 mM glucose + 10% dialyzed FBS, 0.000781 µM
[24] = RPMI 5 mM glucose + 10% dialyzed FBS, 0.00234 µM
[25] = RPMI 5 mM glucose + 10% dialyzed FBS, 0.00702 µM
[26] = RPMI 5 mM glucose + 10% dialyzed FBS, 0.0211 µM
[27] = RPMI 5 mM glucose + 10% dialyzed FBS, 0.0632 µM
[28] = RPMI 5 mM glucose + 10% dialyzed FBS, 0.19 µM
[29] = RPMI 5 mM glucose + 10% dialyzed FBS, 0.569 µM
[30] = RPMI 5 mM glucose + 10% dialyzed FBS, 1.71 µM
[31] = RPMI 5 mM glucose + 10% dialyzed FBS, 5.12 µM
[32] = RPMI 5 mM glucose + 10% dialyzed FBS, 15.4 µM
[33] = RPMI 5 mM glucose + 10% dialyzed FBS, 46.1 µM

| SMILES | cell viability [1] [%] | cell viability [2] [%] | cell viability [3] [%] | cell viability [4] [%] | cell viability [5] [%] | cell viability [6] [%] | cell viability [7] [%] | cell viability [8] [%] | cell viability [9] [%] | cell viability [10] [%] | cell viability [11] [%] | cell viability [12] [%] | cell viability [13] [%] | cell viability [14] [%] | cell viability [15] [%] | cell viability [16] [%] | cell viability [17] [%] | cell viability [18] [%] | cell viability [19] [%] | cell viability [20] [%] | cell viability [21] [%] | cell viability [22] [%] | cell viability [23] [%] | cell viability [24] [%] | cell viability [25] [%] | cell viability [26] [%] | cell viability [27] [%] | cell viability [28] [%] | cell viability [29] [%] | cell viability [30] [%] | cell viability [31] [%] | cell viability [32] [%] | cell viability [33] [%] |
| --- | --- | --- | --- | --- | --- | --- | --- | --- | --- | --- | --- | --- | --- | --- | --- | --- | --- | --- | --- | --- | --- | --- | --- | --- | --- | --- | --- | --- | --- | --- | --- | --- | --- |
| C[C@H](CCC(=O)O)[C@H]1CC[C@H]2[C@@H]3[C@H](O)C[C@@H]4C[C@H](O)CC[C@]4(C)[C@H]3CC[C@]12C | 94.6 | 87.9 | 93.9 | 92.4 | 98.8 | 97.5 | 93.3 | 92.8 | 92.2 | 93.9 | 94.2 | 91 | 88.4 | 89.2 | 91.7 | 90.5 | 90.1 | 90.7 | 90 | 88.1 | 89.8 | 95.6 | 81.1 | 82.7 | 93.3 | 93 | 89.6 | 85.3 | 88.2 | 87.2 | 86.5 | 85.9 | 91.1 |
| CCc1ccc(OCc2ccccc2C(=O)Nc2ccc3nc(C)cc(N)c3c2)cc1 | 95.7 | 107 | 110 | 114 | 118 | 116 | 113 | 121 | 110 | 6.84 | 4.54 | 88.2 | 107 | 112 | 113 | 108 | 114 | 118 | 123 | 108 | 41.3 | 4.15 | 89.3 | 103 | 108 | 111 | 104 | 110 | 112 | 121 | 103 | 47.5 | 4.84 |
| O=C(O)c1ccc(O)c2ncc(N3CCOCC3)cc12 | 106 | 105 | 100 | 108 | 107 | 103 | 97.2 | 99.9 | 98.6 | 95.6 | 7.44 | 102 | 99.1 | 96.8 | 92.8 | 95.7 | 97.6 | 96.6 | 94.2 | 87.8 | 85.2 | 9.83 | 98.5 | 95.2 | 104 | 90.9 | 98 | 97.7 | 105 | 102 | 81.8 | 84.7 | 5.31 |
| O=C1NC(=O)/C(=C/c2ccc3nccnc3c2)S1 | 111 | 111 | 117 | 107 | 115 | 122 | 102 | 116 | 103 | 97.5 | 99.7 | 110 | 112 | 119 | 114 | 115 | 109 | 98.7 | 106 | 95.2 | 95.9 | 91.4 | 110 | 111 | 126 | 123 | 114 | 113 | 115 | 102 | 96.2 | 104 | 97.1 |
| CCCCCNC(=N)N/N=C/c1c[nH]c2ccc(OC)cc12 | 122 | 119 | 121 | 130 | 126 | 139 | 128 | 137 | 121 | 59.8 | 20.2 | – | – | – | – | – | – | – | – | – | – | – | – | – | – | – | – | – | – | – | – | – | – |
| CC(C)C1CCC(C(=O)N[C@H](Cc2ccccc2)C(=O)O)CC1 (some centres undefined) | 100 | 95.9 | 98.9 | 103 | 95 | 99.5 | 92.5 | 88.2 | 93.6 | 87.4 | 86.9 | 94.3 | 97.8 | 91.9 | 96.9 | 98.2 | 93.7 | 84.4 | 88.3 | 86.3 | 83.5 | 87.1 | 91.1 | 95.3 | 88.2 | 92.3 | 90.9 | 89.7 | 77.7 | 86.9 | 89.7 | 79.9 | 84.6 |
| CC(=O)N(C)C1(c2ccccc2)CCN(CCC[C@]2(c3ccc(Cl)c(Cl)c3)CCCN(C(=O)c3ccccc3)C2)CC1 | 115 | 114 | 115 | 116 | 114 | 108 | 91.1 | 54.9 | 45.1 | 33.9 | 7.84 | 110 | 110 | 110 | 107 | 114 | 119 | 111 | 88.4 | 55.8 | 41.1 | 12.1 | 110 | 107 | 110 | 112 | 117 | 108 | 99.8 | 79.9 | 38.9 | 18.5 | 11.2 |
| O=C(O)c1cc(O)c2c(c1)C(=O)c1cccc(O)c1C2=O | 113 | 117 | 123 | 117 | 107 | 117 | 112 | 110 | 107 | 106 | 99.9 | 110 | 120 | 113 | 119 | 119 | 113 | 109 | 120 | 98 | 113 | 102 | 118 | 119 | 113 | 114 | 112 | 112 | 110 | 108 | 99.1 | 108 | 99.7 |
| C[C@]12CCC3c4ccc(O)cc4CCC3C1CCC2=O (some centres undefined) | 92 | 95.3 | 101 | 98.9 | 102 | 97.9 | 84.6 | 94 | 90.2 | 73.7 | 83.9 | 88.2 | 95.4 | 96.8 | 103 | 102 | 100 | 98.8 | 95.5 | 87.4 | 72.6 | 83.9 | 86.9 | 93.6 | 86.2 | 87 | 87.7 | 88.4 | 97.9 | 80.7 | 72.8 | 54.4 | 66.4 |
| CO[C@H]1CCC(O[C@H]2C[C@H]([C@]3(C)CC[C@]4(C[C@H](O)[C@@H](C)[C@@H]([C@@H](C)/C=C(\C)C(=O)[C@H](C)C[C@H](C)C(=O)[O-])O4)O3)O[C@]3(O[C@@H]([C@H]4O[C@@](O)(CO)[C@H](C)C[C@@H]4C)C[C@@H]3C)[C@@H]2C)O[C@@H]1C (some centres undefined) | 120 | 124 | 119 | 118 | 111 | 106 | 87.3 | 80.2 | 48.8 | 35.7 | 21.5 | 124 | 113 | 106 | 113 | 111 | 103 | 99.7 | 73.1 | 44.2 | 28.9 | 22.7 | 118 | 120 | 109 | 119 | 120 | 119 | 108 | 88.8 | 39.7 | 25.3 | 27.1 |
| COc1ccccc1[C@H](c1cccc2ccccc12)[C@@](C)(C#N)C(=O)N1CCC(c2cccc(C(F)(F)F)c2)CC1 | 99.7 | 109 | 104 | 115 | 104 | 113 | 107 | 107 | 92.7 | 84.5 | 68.8 | 108 | 115 | 104 | 107 | 119 | 99.8 | 107 | 92.4 | 80.3 | 72.7 | 60.7 | 108 | 108 | 117 | 112 | 122 | 111 | 108 | 112 | 88.7 | 71.2 | 47.9 |
| CC[C@H]1OC(=O)[C@H](C)[C@@H](O[C@H]2C[C@@](C)(OC)[C@@H](O)[C@H](C)O2)[C@H](C)[C@@H](O[C@@H]2O[C@H](C)C[C@H](N(C)C)[C@H]2O)[C@](C)(OC)C[C@@H](C)C(=O)[C@H](C)[C@@H](O)[C@]1(C)O | 109 | 102 | 98 | 98.7 | 103 | 96.7 | 95.8 | 93.2 | 91.6 | 93.5 | 82.1 | 94.3 | 103 | 98.6 | 88.4 | 96.3 | 98.5 | 90.8 | 89.8 | 86 | 84.2 | 89.6 | 93.2 | 98.5 | 96.3 | 88 | 94.8 | 94.3 | 90.5 | 85.6 | 90.8 | 94.2 | 81.2 |
| CC(C(C)N1CC(=O)NC(=O)C1)N1CC(=O)NC(=O)C1 (centres undefined) | 117 | 123 | 121 | 119 | 131 | 130 | 130 | 117 | 109 | 102 | 89.6 | – | – | – | – | – | – | – | – | – | – | – | – | – | – | – | – | – | – | – | – | – | – |
| Nc1nc(F)nc2c1ncn2[C@@H]1O[C@H](COP(=O)(O)O)[C@@H](O)[C@@H]1O | 119 | 120 | 121 | 121 | 130 | 124 | 120 | 133 | 128 | 84.2 | 52.2 | 122 | 121 | 132 | 129 | 122 | 142 | 126 | 141 | 137 | 110 | 74.8 | 127 | 123 | 123 | 123 | 130 | 138 | 124 | 126 | 129 | 99.5 | 62.1 |
| Cc1ccc(C(=O)Nc2cccc(C(F)(F)F)c2)cc1Nc1nc(-c2cccnc2)nc2c1cnn2C | 88.1 | 90.8 | 93.7 | 89.5 | 91.2 | 90 | 86.6 | 85.9 | 83.3 | 86.7 | 84 | 73.1 | 83.8 | 88.9 | 85.6 | 83.9 | 82.8 | 87.5 | 88.2 | 79.5 | 78.8 | 74.5 | 90.8 | 85.2 | 87.6 | 86.7 | 95.5 | 84.7 | 90.9 | 96.7 | 75.8 | 76.8 | 86.5 |
| OC1=CC=C(C=C1)C/2=C/C3=C(OC2)C=C(O)C=C3 | 109 | 91.7 | 111 | 117 | 109 | 116 | 104 | 80.2 | 19.8 | 2.76 | 1.12 | 108 | 121 | 123 | 110 | 126 | 111 | 107 | 88.2 | 24.3 | 1.45 | -0.00081 | 102 | 112 | 111 | 113 | 111 | 106 | 102 | 74.9 | 16.2 | 2.96 | 0.54 |
